Laboratory results as given in PMC11062922 (Nature Chemical Biology, 2023).

How the values were obtained:
[1] = test system: MAPK3; experiment: Kinobeads competition binding: MAPK3; set-up: species or system human; details: target MAPK3
[2] = target: T1, CDK7 (Homo sapiens, UniProt P50613); experiment: Kinobeads competition binding: CDK7; details: target CDK7
T1 construct: endogenous in cells

[3] = target: T2, PKN1 (Homo sapiens, UniProt Q16512); experiment: Kinobeads competition binding: PKN1; details: target PKN1;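 also: share of total target engagement due to this protein at one drug concentration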
T2 construct: a mixture of lysates from five cancer cell lines; endogenous in cells
Text: Supplement 41589_2023_1459_MOESM4_ESM.xlsx, sheet "CATDS matrix" | column: PKN1

[4] = target: T3, ABL2 (Homo sapiens, UniProt P42684); experiment: Kinobeads competition binding: ABL2; details: target ABL2
T3 construct: endogenous in cells

[5] = target: T4, BTK (Homo sapiens, UniProt Q06187); experiment: Kinobeads competition binding: BTK; details: target BTK
T4 construct: endogenous in cells
Text: Supplement 41589_2023_1459_MOESM4_ESM.xlsx, sheet "CATDS matrix" | column: BTK

[6] = test system: PKM; experiment: Kinobeads competition binding: PKM; set-up: species or system human; details: target PKM
[7] = test system: LIMK1; experiment: Kinobeads competition binding: LIMK1; set-up: species or system human; details: target LIMK1
[8] = test system: CAMK4; experiment: Kinobeads competition binding: CAMK4; set-up: species or system human; details: target CAMK4;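 also: selectivity score: engagement of this protein divided by summed engagement of all targets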
[9] = test system: CDK10; experiment: Kinobeads competition binding: CDK10; set-up: species or system human; details: target CDK10
[10] = test system: FLT3; experiment: Kinobeads two-dose competition binding: FLT3; set-up: species or system human; details: for CATDS: target FLT3
[11] = target: T5, PDXK (Homo sapiens, UniProt O00764); experiment: Kinobeads competition binding: PDXK; details: target PDXK;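 also: share of total target engagement due to this protein at one drug concentration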
T5 construct: a mixture of lysates from five cancer cell lines; endogenous in cells
T5 sequence (O00764 1-312): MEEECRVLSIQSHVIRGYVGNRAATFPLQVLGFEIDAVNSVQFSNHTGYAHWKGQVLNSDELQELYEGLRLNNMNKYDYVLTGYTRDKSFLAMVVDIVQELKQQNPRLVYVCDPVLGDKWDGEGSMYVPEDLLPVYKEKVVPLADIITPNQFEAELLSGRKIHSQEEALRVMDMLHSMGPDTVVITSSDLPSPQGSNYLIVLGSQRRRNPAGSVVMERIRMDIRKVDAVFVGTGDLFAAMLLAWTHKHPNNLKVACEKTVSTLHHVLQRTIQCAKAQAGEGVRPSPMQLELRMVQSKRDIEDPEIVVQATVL
Text: Supplement 41589_2023_1459_MOESM4_ESM.xlsx, sheet "CATDS matrix" | column: PDXK

[12] = target: T6, PDGFRB (Homo sapiens, UniProt P09619); experiment: Kinobeads competition binding: PDGFRB; details: target PDGFRB;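 also: share of total target engagement due to this protein at one drug concentration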
T6 construct: a mixture of lysates from five cancer cell lines; endogenous in cells
Text: Supplement 41589_2023_1459_MOESM4_ESM.xlsx, sheet "CATDS matrix" | column: PDGFRB

[13] = target: T7, AURKA (Homo sapiens, UniProt O14965); experiment: Kinobeads competition binding: AURKA; details: target AURKA;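 also: selectivity score: engagement of this protein divided by summed engagement of all targets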
T7 construct: endogenous in cells
T7 sequence (O14965 1-403): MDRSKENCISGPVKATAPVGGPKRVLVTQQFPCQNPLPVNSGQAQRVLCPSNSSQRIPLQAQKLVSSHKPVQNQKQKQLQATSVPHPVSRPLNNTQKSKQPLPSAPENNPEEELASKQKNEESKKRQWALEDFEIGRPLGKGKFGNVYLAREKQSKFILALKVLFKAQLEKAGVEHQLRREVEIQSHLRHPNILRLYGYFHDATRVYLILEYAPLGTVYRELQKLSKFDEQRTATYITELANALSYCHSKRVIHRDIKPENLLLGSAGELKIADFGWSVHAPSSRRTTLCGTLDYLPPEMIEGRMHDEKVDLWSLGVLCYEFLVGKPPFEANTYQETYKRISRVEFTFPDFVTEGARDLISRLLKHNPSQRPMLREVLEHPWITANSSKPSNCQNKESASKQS
Text: Supplement 41589_2023_1459_MOESM4_ESM.xlsx, sheet "CATDS matrix" | column: AURKA

[14] = test system: LYN; experiment: Kinobeads competition binding: LYN; set-up: species or system human; details: target LYN
[15] = test system: AP1G1; experiment: Kinobeads competition binding: AP1G1; set-up: species or system human; details: target AP1G1
[16] = test system: IRAK4; experiment: Kinobeads competition binding: IRAK4; set-up: species or system human; details: target IRAK4
[17] = test system: CSNK1A1; experiment: Kinobeads competition binding: CSNK1A1; set-up: species or system human; details: target CSNK1A1
[18] = target: T8, NUAK2 (Homo sapiens, UniProt Q9H093); experiment: Kinobeads competition binding: NUAK2; details: target NUAK2
T8 construct: a mixture of lysates from five cancer cell lines; endogenous in cells
T8 sequence (Q9H093 1-628): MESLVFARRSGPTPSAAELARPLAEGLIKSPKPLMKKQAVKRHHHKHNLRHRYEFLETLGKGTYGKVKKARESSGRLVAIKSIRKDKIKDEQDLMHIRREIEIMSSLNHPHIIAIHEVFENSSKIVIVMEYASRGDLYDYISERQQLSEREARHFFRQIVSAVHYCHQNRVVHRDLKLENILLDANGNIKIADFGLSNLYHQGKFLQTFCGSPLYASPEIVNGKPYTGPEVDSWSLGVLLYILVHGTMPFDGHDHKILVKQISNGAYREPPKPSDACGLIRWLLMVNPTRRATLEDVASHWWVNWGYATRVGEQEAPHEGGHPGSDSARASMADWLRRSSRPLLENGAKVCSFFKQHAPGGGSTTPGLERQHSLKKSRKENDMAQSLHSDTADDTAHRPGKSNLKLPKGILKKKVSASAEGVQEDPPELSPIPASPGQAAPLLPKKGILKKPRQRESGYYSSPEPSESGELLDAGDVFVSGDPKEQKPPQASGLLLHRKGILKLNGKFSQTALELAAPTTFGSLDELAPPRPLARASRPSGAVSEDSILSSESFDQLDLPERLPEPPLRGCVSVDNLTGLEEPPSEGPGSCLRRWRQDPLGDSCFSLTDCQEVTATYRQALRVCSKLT
Text: Supplement 41589_2023_1459_MOESM4_ESM.xlsx, sheet "CATDS matrix" | column: NUAK2

[19] = test system: MAP3K4; experiment: Kinobeads competition binding: MAP3K4; set-up: species or system human; details: target MAP3K4;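 also: target engagement share of this target among all targets at its Kdapp concentration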
[20] = test system: ATR; experiment: Kinobeads competition binding: ATR; set-up: species or system human; details: target ATR
[21] = test system: CDC42BPB; experiment: Kinobeads competition binding: CDC42BPB; set-up: species or system human; details: target CDC42BPB

T4 sequence (Q06187 whole entry): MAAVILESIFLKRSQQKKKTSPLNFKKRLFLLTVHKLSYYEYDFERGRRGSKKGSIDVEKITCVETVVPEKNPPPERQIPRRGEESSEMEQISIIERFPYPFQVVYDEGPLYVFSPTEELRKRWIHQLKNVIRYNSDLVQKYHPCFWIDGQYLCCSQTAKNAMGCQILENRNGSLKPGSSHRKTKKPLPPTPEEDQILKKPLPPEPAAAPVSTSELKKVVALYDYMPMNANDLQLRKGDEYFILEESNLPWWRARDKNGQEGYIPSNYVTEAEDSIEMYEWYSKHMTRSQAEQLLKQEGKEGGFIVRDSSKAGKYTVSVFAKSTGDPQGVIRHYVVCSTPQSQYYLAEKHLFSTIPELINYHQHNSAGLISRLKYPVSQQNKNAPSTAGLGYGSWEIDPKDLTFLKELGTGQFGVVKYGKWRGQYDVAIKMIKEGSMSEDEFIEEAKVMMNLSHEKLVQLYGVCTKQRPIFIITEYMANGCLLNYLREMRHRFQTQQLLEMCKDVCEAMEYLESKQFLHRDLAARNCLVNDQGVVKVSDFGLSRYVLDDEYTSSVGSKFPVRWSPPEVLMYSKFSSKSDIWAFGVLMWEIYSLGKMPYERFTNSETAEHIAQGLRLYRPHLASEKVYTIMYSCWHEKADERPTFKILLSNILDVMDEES
T1 sequence (P50613 whole entry): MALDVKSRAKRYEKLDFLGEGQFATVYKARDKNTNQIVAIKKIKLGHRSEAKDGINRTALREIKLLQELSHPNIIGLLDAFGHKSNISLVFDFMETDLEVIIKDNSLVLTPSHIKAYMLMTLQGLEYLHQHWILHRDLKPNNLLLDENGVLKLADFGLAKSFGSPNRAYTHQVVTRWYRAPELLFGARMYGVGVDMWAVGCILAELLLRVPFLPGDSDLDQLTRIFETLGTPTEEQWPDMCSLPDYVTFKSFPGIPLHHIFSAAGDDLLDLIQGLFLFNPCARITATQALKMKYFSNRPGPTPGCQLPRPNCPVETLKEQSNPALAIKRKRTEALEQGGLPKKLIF
T6 sequence (P09619 33-1106): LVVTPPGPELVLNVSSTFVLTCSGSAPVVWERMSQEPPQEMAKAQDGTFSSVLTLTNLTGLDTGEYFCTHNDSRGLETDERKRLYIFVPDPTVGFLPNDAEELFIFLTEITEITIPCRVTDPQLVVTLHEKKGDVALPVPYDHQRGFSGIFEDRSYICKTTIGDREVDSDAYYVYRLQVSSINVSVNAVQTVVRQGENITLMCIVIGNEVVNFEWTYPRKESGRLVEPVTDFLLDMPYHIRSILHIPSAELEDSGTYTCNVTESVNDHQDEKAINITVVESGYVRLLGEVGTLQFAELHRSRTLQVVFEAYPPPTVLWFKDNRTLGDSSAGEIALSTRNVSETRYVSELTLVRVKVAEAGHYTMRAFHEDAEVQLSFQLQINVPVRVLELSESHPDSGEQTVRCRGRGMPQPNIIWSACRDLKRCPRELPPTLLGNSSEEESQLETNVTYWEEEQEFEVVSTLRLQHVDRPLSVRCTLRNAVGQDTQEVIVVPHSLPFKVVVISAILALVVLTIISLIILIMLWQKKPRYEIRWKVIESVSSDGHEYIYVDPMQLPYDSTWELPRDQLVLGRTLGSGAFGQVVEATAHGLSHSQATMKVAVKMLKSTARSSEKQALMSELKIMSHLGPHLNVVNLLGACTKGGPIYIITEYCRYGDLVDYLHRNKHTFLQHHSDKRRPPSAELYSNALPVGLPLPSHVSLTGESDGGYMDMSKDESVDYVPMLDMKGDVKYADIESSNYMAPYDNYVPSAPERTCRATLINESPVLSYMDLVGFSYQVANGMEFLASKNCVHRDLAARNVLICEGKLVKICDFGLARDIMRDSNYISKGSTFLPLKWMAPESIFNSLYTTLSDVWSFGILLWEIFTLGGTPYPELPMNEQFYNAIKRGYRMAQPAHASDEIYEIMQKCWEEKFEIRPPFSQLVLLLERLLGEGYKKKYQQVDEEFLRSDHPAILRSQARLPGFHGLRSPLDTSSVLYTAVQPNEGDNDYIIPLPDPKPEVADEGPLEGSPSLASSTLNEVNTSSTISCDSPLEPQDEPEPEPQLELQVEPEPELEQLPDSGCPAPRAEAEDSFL
T3 sequence (P42684 whole entry): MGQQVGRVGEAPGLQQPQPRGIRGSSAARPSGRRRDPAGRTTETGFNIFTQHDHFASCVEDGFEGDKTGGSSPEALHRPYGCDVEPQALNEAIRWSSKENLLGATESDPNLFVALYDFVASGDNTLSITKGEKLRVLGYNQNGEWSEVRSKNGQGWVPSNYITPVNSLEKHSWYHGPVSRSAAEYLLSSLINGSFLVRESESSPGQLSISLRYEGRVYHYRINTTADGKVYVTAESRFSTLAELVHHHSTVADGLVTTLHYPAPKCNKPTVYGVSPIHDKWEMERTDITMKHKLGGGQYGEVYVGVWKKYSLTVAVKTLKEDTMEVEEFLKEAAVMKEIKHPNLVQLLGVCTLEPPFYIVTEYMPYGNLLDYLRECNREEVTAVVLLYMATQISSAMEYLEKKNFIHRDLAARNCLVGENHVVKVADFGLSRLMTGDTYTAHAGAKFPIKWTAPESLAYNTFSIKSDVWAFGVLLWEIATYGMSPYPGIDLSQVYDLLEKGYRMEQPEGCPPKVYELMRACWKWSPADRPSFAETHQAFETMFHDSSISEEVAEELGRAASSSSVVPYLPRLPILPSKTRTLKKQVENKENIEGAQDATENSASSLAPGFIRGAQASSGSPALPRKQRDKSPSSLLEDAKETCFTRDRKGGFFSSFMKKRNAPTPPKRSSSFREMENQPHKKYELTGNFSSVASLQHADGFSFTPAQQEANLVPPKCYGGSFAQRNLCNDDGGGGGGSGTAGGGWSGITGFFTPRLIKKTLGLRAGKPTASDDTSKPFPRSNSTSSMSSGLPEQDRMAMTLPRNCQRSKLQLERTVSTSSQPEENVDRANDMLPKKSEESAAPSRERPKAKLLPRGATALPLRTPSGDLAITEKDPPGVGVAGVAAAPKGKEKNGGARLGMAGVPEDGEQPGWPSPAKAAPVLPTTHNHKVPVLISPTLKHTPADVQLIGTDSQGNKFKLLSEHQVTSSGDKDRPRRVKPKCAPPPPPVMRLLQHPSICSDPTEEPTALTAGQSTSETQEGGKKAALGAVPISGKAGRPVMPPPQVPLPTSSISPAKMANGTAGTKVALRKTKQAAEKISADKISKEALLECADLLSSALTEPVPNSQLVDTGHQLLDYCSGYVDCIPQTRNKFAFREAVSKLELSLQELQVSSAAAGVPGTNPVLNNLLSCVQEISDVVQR
T2 sequence (Q16512 whole entry): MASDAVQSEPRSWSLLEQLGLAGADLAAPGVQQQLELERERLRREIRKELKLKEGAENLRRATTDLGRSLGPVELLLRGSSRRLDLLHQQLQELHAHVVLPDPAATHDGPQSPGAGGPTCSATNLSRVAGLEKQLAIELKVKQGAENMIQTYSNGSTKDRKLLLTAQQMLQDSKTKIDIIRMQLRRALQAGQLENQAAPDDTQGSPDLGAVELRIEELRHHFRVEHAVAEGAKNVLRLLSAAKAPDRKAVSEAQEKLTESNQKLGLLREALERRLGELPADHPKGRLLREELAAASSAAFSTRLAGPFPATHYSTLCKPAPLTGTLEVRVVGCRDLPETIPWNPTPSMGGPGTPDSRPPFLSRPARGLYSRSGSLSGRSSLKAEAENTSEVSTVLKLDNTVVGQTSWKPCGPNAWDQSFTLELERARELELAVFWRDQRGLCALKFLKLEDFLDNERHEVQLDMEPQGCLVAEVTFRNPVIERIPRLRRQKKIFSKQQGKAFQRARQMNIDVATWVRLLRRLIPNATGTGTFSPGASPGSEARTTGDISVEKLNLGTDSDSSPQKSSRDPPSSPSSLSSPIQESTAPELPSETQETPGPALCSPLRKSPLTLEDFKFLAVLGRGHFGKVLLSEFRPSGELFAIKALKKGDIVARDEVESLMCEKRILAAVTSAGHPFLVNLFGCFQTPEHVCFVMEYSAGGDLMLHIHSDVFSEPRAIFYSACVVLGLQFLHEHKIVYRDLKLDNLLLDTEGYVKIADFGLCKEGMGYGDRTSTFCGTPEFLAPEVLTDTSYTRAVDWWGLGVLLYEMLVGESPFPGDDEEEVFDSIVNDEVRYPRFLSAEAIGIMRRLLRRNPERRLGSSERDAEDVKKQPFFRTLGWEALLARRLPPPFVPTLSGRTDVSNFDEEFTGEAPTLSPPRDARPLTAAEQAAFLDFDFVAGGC

| SMILES | CATDS [1] | CATDS [2] | CATDS [3] | CATDS [4] | CATDS [5] | CATDS [6] | CATDS [7] | CATDS [8] | CATDS [9] | CATDS [10] | CATDS [11] | CATDS [12] | CATDS [13] | CATDS [14] | CATDS [15] | CATDS [16] | CATDS [17] | CATDS [18] | CATDS [19] | CATDS [20] | further results |
| --- | --- | --- | --- | --- | --- | --- | --- | --- | --- | --- | --- | --- | --- | --- | --- | --- | --- | --- | --- | --- | --- |
| CCc1cc2c(cc1N1CCC(N3CCOCC3)CC1)C(C)(C)c1[nH]c3cc(C#N)ccc3c1C2=O [Alectinib] | 0 | 0 | 0 | 0 | 0 | 0 | 0 | 0 | 0 | 0 | 0 | 0 | 0 | 0 | 0 | 0 | 0 | 0 | 0 | 0 | CATDS [21]: 0 |
| CCN1CCN(Cc2ccc(Nc3ncc(F)c(-c4cc(F)c5nc(C)n(C(C)C)c5c4)n3)nc2)CC1 [Abemaciclib] | 0 | 0 | 0 | 0 | 0 | 0 | 0 | 0 | 0 | 0 | 0 | 0 | 0 | 0 | 0 | 0 | 0 | 0 | 0 | 0 | CATDS [21]: 0 |
| Nc1ncnc2[nH]c(-c3ccccc3)nc12 [AH5015_KCGS] | 0 | 0.1088 | 0 | 0 | 0 | 0 | 0 | 0 | 0 | 0 | 0 | 0 | 0 | 0 | 0 | 0 | 0 | 0 | 0 | 0 | CATDS [21]: 0 |
| N#CC1(c2ccc(NC(=O)c3cccnc3NCc3ccncc3)cc2)CCCC1 [Apatinib] | 0 | 0 | 0 | 0 | 0 | 0 | 0 | 0 | 0 | 0 | 0 | 0 | 0 | 0 | 0 | 0 | 0 | 0 | 0 | 0 | CATDS [21]: 0 |
| COc1cc(Nc2ncc3c(C)nc(-c4cc5ccccc5[nH]4)n3n2)cc(OC)c1OC [GW869516X] | – | – | – | – | – | – | – | – | – | – | – | – | – | – | – | – | – | – | – | – | Kinobeads Data ([10]; FLT3): no target |
| CN(C)C/C=C/C(=O)Nc1cc2c(Nc3ccc(F)c(Cl)c3)ncnc2cc1O[C@H]1CCOC1 [Afatinib] | – | – | 0 | – | 0 | – | – | – | 0 | – | 0 | 0 | 0 | – | 0 | – | – | 0 | – | 0 | – |
